# Target: T1, Recombinant IKKβ (Homo sapiens, UniProt O14920)
# T1 construct: purchased Millipore, Dundee, UK
# T1 sequence (O14920 1-756): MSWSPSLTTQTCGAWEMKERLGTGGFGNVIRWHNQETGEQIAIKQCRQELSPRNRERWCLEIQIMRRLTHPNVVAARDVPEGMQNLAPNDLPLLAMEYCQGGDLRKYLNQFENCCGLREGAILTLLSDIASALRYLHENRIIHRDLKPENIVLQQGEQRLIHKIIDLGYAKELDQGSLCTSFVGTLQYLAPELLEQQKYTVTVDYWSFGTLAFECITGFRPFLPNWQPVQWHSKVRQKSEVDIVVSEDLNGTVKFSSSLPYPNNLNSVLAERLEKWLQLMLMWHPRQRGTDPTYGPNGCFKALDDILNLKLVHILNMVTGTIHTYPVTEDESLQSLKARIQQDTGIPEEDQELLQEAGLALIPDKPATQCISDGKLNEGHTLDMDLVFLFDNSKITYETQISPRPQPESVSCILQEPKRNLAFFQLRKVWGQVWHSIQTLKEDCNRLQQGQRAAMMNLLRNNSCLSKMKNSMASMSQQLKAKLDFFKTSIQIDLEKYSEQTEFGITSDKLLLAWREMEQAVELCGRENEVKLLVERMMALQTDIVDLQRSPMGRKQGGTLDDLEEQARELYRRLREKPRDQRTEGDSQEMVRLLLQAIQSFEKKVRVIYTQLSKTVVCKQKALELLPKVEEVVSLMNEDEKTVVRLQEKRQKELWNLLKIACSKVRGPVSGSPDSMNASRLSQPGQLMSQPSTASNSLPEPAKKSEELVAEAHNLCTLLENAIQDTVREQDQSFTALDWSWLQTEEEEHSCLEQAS
# Assay: DELFIA IKKβ kinase assay (apparent Ki, Cheng-Prusoff)
# Assay type: biochemical
# Conditions: DELFIA assay (first line of an example)
# In short: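 DELFIA time-resolved fluorescence (ex 340/em 615 nm) quantified phosphorylation of a biotinylated IκB-α Ser32 peptide (0.375 μM) by 37 nM recombinant IKKα or IKKβ. Reactions used 40 μM ATP, Tris pH 7.5 buffer with MgCl2, DTT and BSA, 60 min at 30° C. Cheng-Prusoff equation gave apparent Ki.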
row,Structure (SMILES),Ki
1,"Nc1n[nH]c2c(C#CC3CCCCC3)cc(-c3ccnc4[nH]ccc34)cc12 [Example 204, 7-(Cyclohexylethynyl)-5-(1H-pyrrolo[2,3-b]pyridin-4-yl)-1H-indazol-3-amine]",1.18 µM
2,"CC(C)N(C)Cc1cc2c(-c3ccc4[nH]nc(N)c4c3)ccnc2[nH]1 [Example 259, 5-(2-((Isopropyl(methyl)amino)methyl)-1H-pyrrolo[2,3-b]pyridine-4-yl)-1H-indazol-3-amine]",2.14 µM
3,"Nc1n[nH]c2ccc(-c3ccnc4[nH]c(C5CC5)cc34)cc12 [Example 218, 5-(2-Cyclopropyl-1H-pyrrolo[2,3-b]pyridin-4-yl)-1H-indazol-3-amine]",0.063 µM
4,"CC(C)(C)C#Cc1cc(-c2ccnc3[nH]ccc23)cc2c(N)n[nH]c12 [Example 201, 7-(3,3-Dimethylbut-1-yn-1-yl)-5-(1H-pyrrolo[2,3-b]pyridin-4-yl)-1H-indazol-3-amine]",1.39 µM
5,"CC(C)(C)NCc1cc2c(-c3ccc4[nH]nc(N)c4c3)ccnc2[nH]1 [Example 248, 5-(2-((tert-Butylamino)methyl)-1H-pyrrolo[2,3-b]pyridine-4-yl)-1H-indazol-3-amine]",4.02 µM
6,"Nc1n[nH]c2ccc(-c3ccnc4[nH]c(C5CCCCN5)cc34)cc12 (centres unmarked) [Example 250, 5-(2-(Piperidin-2-yl)-1H-pyrrolo[2,3-b]pyridine-4-yl)-1H-indazol-3-amine]",> 10 µM
7,"Nc1n[nH]c2ccc(-c3ccnc4[nH]c(C(=O)NC5CCCCC5)cc34)cc12 [Example 236, 4-(3-Amino-1H-indazol-5-yl)-N-cyclohexyl-1H-pyrrolo[2,3-b]pyridine-2-carboxamide]",0.079 µM
8,"Nc1n[nH]c2ccc(-c3ccnc4[nH]c(CNC5CCCCC5)cc34)cc12 [Example 251, 5-(2-((cyclohexylamino)methyl)-1H-pyrrolo[2,3-b]339yridine-4-yl)-1H-indazol-3-amine]",1.3 µM
9,"Nc1n[nH]c2ccc(-c3ccnc4[nH]c(C(=O)N5CCCC5)cc34)cc12 [Example 234, (4-(3-Amino-1H-indazol-5-yl)-1H-pyrrolo[2,3-b]pyridin-2-yl)(pyrrolidin-1-yl)methanone]",0.272 µM
10,"CC(C)(C)OCc1cc2c(-c3ccc4[nH]nc(N)c4c3)ccnc2[nH]1 [Example 227, 5-(2-(tert-Butoxymethyl)-1H-pyrrolo[2,3-b]pyridin-4-yl)-1H-indazol-3-amine]",0.754 µM
11,"C#Cc1cc(-c2ccnc3[nH]ccc23)cc2c(N)n[nH]c12 [Example 200, 7-Ethynyl-5-(1H-pyrrolo[2,3-b]pyridin-4-yl)-1H-indazol-3-amine]",0.137 µM
12,"CC(C)(O)C#Cc1cc(-c2ccnc3[nH]ccc23)cc2c(N)n[nH]c12 [Example 206, 4-(3-Amino-5-(1H-pyrrolo[2,3-b]pyridin-4-yl)-1H-indazol-7-yl)-2-methylbut-3-yn-2-ol]",1.52 µM
13,"Nc1n[nH]c2c(C#CCCCN3CCCCC3)cc(-c3ccnc4[nH]ccc34)cc12 [Example 212, 7-(5-(Piperidin-1-yl)pent-1-yn-1-yl)-5-(1H-pyrrolo[2,3-b]pyridin-4-yl)-1H-indazol-3-amine]",2.37 µM
14,"Nc1n[nH]c2c(C#CC3CCCC3)cc(-c3ccnc4[nH]ccc34)cc12 [Example 203, 7-(Cyclopentylethynyl)-5-(1H-pyrrolo[2,3-b]pyridin-4-yl)-1H-indazol-3-amine]",0.452 µM
15,"Nc1n[nH]c2ccc(-c3ccnc4[nH]c(C5CCOCC5)cc34)cc12 [Example 228, 5-(2-(tetrahydro-2H-pyran-4-yl)-1H-pyrrolo[2,3-b]pyridin-4-yl)-1H-indazol-3-amine]",0.097 µM

# Next, values leading:
row,Ki,Structure (SMILES)
1,2.51 µM,"Nc1n[nH]c2ccc(-c3ccnc4[nH]c(CN5CCCCCC5)cc34)cc12 [Example 265, 5-(2-(Azepan-1-ylmethyl)-1H-pyrrolo[2,3-b]pyridine-4-yl)-1H-indazol-3-amine]"
2,0.251 µM,"Nc1n[nH]c2ccc(-c3ccnc4[nH]c(CCN5CCOCC5)cc34)cc12 [Example 268, 5-(2-(2-Morpholinoethyl)-1H-pyrrolo[2,3-b]pyridin-4-yl)-1H-indazol-3-amine]"
3,1.72 µM,"Nc1n[nH]c2ccc(-c3ccnc4[nH]c(CN5CCCCC5)cc34)cc12 [Example 260, 5-(2-(Piperidin-1-ylmethyl)-1H-pyrrolo[2,3-b]pyridine-4-yl)-1H-indazol-3-amine]"
4,0.26 µM,"Nc1n[nH]c2ccc(-c3ccnc4[nH]c(CC5CCOCC5)cc34)cc12 [Example 230, 5-(2-((tetrahydro-2H-pyran-4-yl)methyl)-1H-pyrrolo[2,3-b]pyridin-4-yl)-1H-indazol-3-amine]"
5,0.05 µM,"Nc1n[nH]c2ccc(-c3ccnc4[nH]c(CC5CCNCC5)cc34)cc12 [Example 272, 5-(2-(Piperidin-4-ylmethyl)-1H-pyrrolo[2,3-b]pyridin-4-yl)-1H-indazol-3-amine]"
6,2.39 µM,"Nc1n[nH]c2ccc(-c3ccnc4[nH]c(CN5CCC(F)(F)CC5)cc34)cc12 [Example 261, 5-(2-((4,4-Difluoropiperidin-1-yl)methyl)-1H-pyrrolo[2,3-b]pyridine-4-yl)-1H-indazol-3-amine]"
7,0.126 µM,"Nc1n[nH]c2ccc(-c3ccnc4[nH]c(CCCN5CCOCC5)cc34)cc12 [Example 271, 5-(2-(3-Morpholinopropyl)-1H-pyrrolo[2,3-b]pyridin-4-yl)-1H-indazlo-3-amine]"
8,0.507 µM,"Nc1n[nH]c2ccc(-c3ccnc4[nH]c(CCCN5CCCCC5)cc34)cc12 [Example 269, 5-(2-(3-(Piperidin-1-yl)propyl)-1H-pyrrolo[2,3-b]pyridin-4-yl)-1H-indazol-3-amine]"
9,0.838 µM,"CC(C)(C)Cc1cc2c(-c3ccc4[nH]nc(N)c4c3)ccnc2[nH]1 [Example 220, 5-(2-Neopentyl-1H-pyrrolo[2,3-b]pyridin-4-yl)-1H-indazol-3-amine]"
10,2.43 µM,"CN1CCN(Cc2cc3c(-c4ccc5[nH]nc(N)c5c4)ccnc3[nH]2)CC1 [Example 263, 5-(2-((4-Methylpiperazin-1-yl)methyl)-1H-pyrrolo[2,3-b]pyridine-4-yl)-1H-indazol-3-amine]"
11,1.8 µM,"CN1CCCN(Cc2cc3c(-c4ccc5[nH]nc(N)c5c4)ccnc3[nH]2)CC1 [Example 266, 5-(2-((4-Methyl-1,4-diazepan-1-yl)methyl)-1H-pyrrolo[2,3-b]pyridin-4-yl)-1H-indazol-3-amine]"

# Same assay, conditions: non-italicised figure: DELFIA assay
row,Ki,Structure (SMILES)
1,0.289 µM,"Nc1nccc(-c2ccc3[nH]nc(N)c3c2)c1C#CC1CCCC1 [Example 73, 5-(2-Amino-3-(cyclopentylethynyl)pyridine-4-yl)-1H-indazol-3-amine]"
2,0.096 µM,"Nc1nccc(-c2ccc3[nH]nc(N)c3c2)c1C#CCCCO [Example 85, 5-(2-Amino-4-(3-amino-1H-indazol-5-yl)pyridine-3-yl)pent-4-yn-1-ol]"
3,0.294 µM,"CC(C)(O)C#Cc1c(-c2ccc3[nH]nc(N)c3c2)ccnc1N [Example 87, 4-(2-Amino-4-(3-amino-1H-indazol-5-yl)pyridine-3-yl)-2-methylbut-3-yn-2-ol]"
4,3.09 µM,"Nc1nccc(-c2ccc3[nH]nc(N)c3c2)c1C#CC1(O)CCCCCC1 [Example 91, 1-((2-Amino-4-(3-amino-1H-indazol-5-yl)pyridine-3-yl)ethynyl)cycloheptan-1-ol]"
5,0.152 µM,"Nc1nccc(-c2ccc3[nH]nc(N)c3c2)c1C#Cc1ccccc1 [Example 75, 5-(2-Amino-3-(phenylethynyl)pyridine-4-yl)-1H-indazol-3-amine]"
6,0.103 µM,"Nc1nccc(-c2ccc3[nH]nc(N)c3c2)c1C#CCCO [Example 84, 4-(2-Amino-4-(3-amino-1H-indazol-5-yl)pyridine-3-yl)but-3-yn-1-ol]"
7,0.838 µM,"Nc1cc(-c2cc(-c3ccccc3)c3[nH]nc(N)c3c2)ccn1 [Example 104, 5-(2-Aminopyridin-4-yl)-7-phenyl-1H-indazol-3-amine]"
8,0.402 µM,"Nc1nccc(-c2ccc3[nH]nc(N)c3c2)c1C#CCO [Example 83, 3-(2-Amino-4-(3-amino-1H-indazol-5-yl)pyridine-3-yl)prop-2-yn-1-ol]"
9,3 µM,"CC(C)(O)C#Cc1cc(-c2ccnc(N)c2)cc2c(N)n[nH]c12 [Example 140, 4-(3-Amino-5-(2-aminopyridin-4-yl)-1H-indazol-7-yl)-2-methylbut-3-yn-2-ol]"
10,0.342 µM,"Nc1nccc(-c2ccc3[nH]nc(N)c3c2)c1C#CC1CCCCC1 [Example 74, 5-(2-Amino-3-(cyclohexylethynyl)pyridine-4-yl)-1H-indazol-3-amine]"
11,0.268 µM,"CC(C)(C)C#Cc1c(-c2ccc3[nH]nc(N)c3c2)ccnc1N [Example 72, 5-(2-Amino-3-(3,3-dimethylbut-1-yn-1-yl)pyridine-4-yl)-1H-indazol-3-amine]"

row,Structure (SMILES),Ki
1,"CC(C)(C)OCC#Cc1c(-c2ccc3[nH]nc(N)c3c2)ccnc1N [Example 88, 5-(2-Amino-3-(3-(tert-butoxy)prop-1-yn-1-yl)pyridine-4-yl)-1H-indazol-3-amine]",2.34 µM

# Source: patent publication US20250304576A1 (Cancer Research Technology Limited, priority 2022, published 2025)
